Test results taken from article PMC7155171, “Probing the Open Global Health Chemical Diversity Library for Multistage-Active Starting Points for Next-Generation Antimalarials” (ACS Infectious Diseases, 2020).
Like-named read-outs stand apart in the source and are kept apart here.

How the values were obtained:
[1] = tested on: P. falciparum Dd2 (PfLuc) line expressing firefly luciferase, asexual blood stage; assay: microbe, parasite or virus in culture; format: cell-based, Plasmodium falciparum; conditions: Plasmodium falciparum
P. falciparum Dd2 = assay: SYBR green I asexual blood stage proliferation assay (96 h); format: cell-based, Plasmodium falciparum; conditions: for IC50 / Emax: Plasmodium falciparum
[2] = tested on: P. berghei liver stage (PbLuc); assay: P. berghei luciferase liver stage (PbLuc) assay in HepG2-A16-CD81 hepatocytes; format: cell-based, Plasmodium berghei
[3] = HepG2 cytotoxicity screening (CellTiter-Glo); conditions: human, uninfected HepG2-A16-CD81 (EGFP) hepatocytes
[4] = DD2, read-out: P. falciparum Luciferase ABS 11-pt Reconfirmation Dose Response (48hr): IC50, 11-pt dose response, 48hr
[5] = DD2, 8-pt dose response, 96hr, read-out: P. falciparum Luciferase ABS 8-pt Reconfirmation Dose Response (96hr): IC50
[6] = DD2, 8-pt dose response, 96hr, read-out: P. falciparum Luciferase ABS 8-pt Reconfirmation Dose Response (96hr): Maximum inhibition (%)
[7] = DD2, 11-pt dose response, 48hr, read-out: P. falciparum Luciferase ABS 11-pt Reconfirmation Dose Response (48hr): Maximum inhibition (%)
[8] = DD2, 11-pt dose response, 96hr, read-out: P. falciparum Luciferase ABS 11-pt Reconfirmation Dose Response (96hr): IC50
[9] = DD2, 11-pt dose response, 96hr, read-out: P. falciparum Luciferase ABS 11-pt Reconfirmation Dose Response (96hr): Maximum inhibition (%)
[10] = DD2, 11-pt dose response, 96hr, read-out: P. falciparum Sybr Green I ABS 11-pt Reconfirmation Dose Response (96hr): IC50
[11] = DD2, 11-pt dose response, 96hr, read-out: P. falciparum Sybr Green I ABS 11-pt Reconfirmation Dose Response (96hr): Maximum inhibition (%)
[12] = DD2, read-out: CDD P. falciparum Luciferase ABS 11-pt Reconfirmation Dose Response (48hr): IC50 (μM), 11-pt dose response, 48hr
[13] = DD2, 8-pt dose response, 96hr, read-out: CDD P. falciparum Luciferase ABS 8-pt Reconfirmation Dose Response (96hr): IC50
[14] = DD2, 8-pt dose response, 96hr, read-out: CDD P. falciparum Luciferase ABS 8-pt Reconfirmation Dose Response (96hr): Maximum inhibition (%)
[15] = DD2, 11-pt dose response, 48hr, read-out: CDD P. falciparum Luciferase ABS 11-pt Reconfirmation Dose Response (48hr): Maximum inhibition (%)
[16] = DD2, 11-pt dose response, 96hr, read-out: CDD P. falciparum Luciferase ABS 11-pt Reconfirmation Dose Response (96hr): IC50
[17] = DD2, 11-pt dose response, 96hr, read-out: CDD P. falciparum Luciferase ABS 11-pt Reconfirmation Dose Response (96hr): Maximum inhibition (%)
[18] = DD2, Sybr Green I, 11-pt dose response, 96hr, read-out: CDD P. falciparum Sybr Green I ABS 11-pt Reconfirmation Dose Response (96hr): IC50
[19] = DD2, Sybr Green I, 11-pt dose response, 96hr, read-out: CDD P. falciparum Sybr Green I ABS 11-pt Reconfirmation Dose Response (96hr): Maximum inhibition (%)

Row | SMILES | IC50 [1, 12] | IC50 [1, 13] | Emax [1, 14] | Emax [1, 15] | IC50 [1, 16] | Emax [1, 17] | IC50 (P. falciparum Dd2; [18]) | Emax (P. falciparum Dd2; [19]) | inhibition at 2 µM [3] | also measured
1 | CCc1cnc(N)nc1NC(C)c1ccc(C)c(C)c1 (stereo not drawn) [DDD01250400] | – | – | – | – | – | – | – | – | – | IC50 [1, 4]: 2.84 µM; IC50 [1, 5]: 1.66 µM; Emax [1, 6]: 81%; Emax [1, 7]: 94.8%; IC50 [1, 8]: 0.373 µM; Emax [1, 9]: 99.6%; IC50 (P. falciparum Dd2; [10]): 4.48 µM; Emax (P. falciparum Dd2; [11]): 62.1%; confirmed liver stage activity [2]: confirmed liver stage activity
2 | OCC1CCCCN1c1ccc(-c2nc(-c3ccccc3F)no2)cn1 (stereo not drawn) [DDD01257937] | 1.36 µM | 0.46 µM | 90.5% | 83.7% | 1.23 µM | 89.1% | > 12.5 µM | 41.3% | – | –
3 | Clc1ccccc1C1(c2ccnc(-c3ccncc3)n2)CCNCC1 [DDD01257938] | 4.26 µM | 0.31 µM | 93.5% | 98.2% | 0.482 µM | 99.5% | 2.22 µM | 98.9% | – | –
4 | CN(Cc1cccc(O)c1)CC1CCCN(CCc2ccc(Cl)cc2)C1 (stereo not drawn) [DDD01257948] | 2.24 µM | 0.67 µM | 94.6% | 97.4% | 1.38 µM | 99.5% | 0.802 µM | 98% | – | –
5 | CCn1ccnc1CN1CCCC(CO)(Cc2cccc(Cl)c2)C1 (stereo not drawn) [DDD01258327] | – | – | – | – | – | – | – | – | – | IC50 [1, 4]: > 12.5 µM; IC50 [1, 5]: 2.14 µM; Emax [1, 6]: 81.2%; Emax [1, 7]: 38.3%; IC50 [1, 8]: 2.68 µM; Emax [1, 9]: 82.9%; IC50 (P. falciparum Dd2; [10]): 3.02 µM; Emax (P. falciparum Dd2; [11]): 58.2%
6 | COc1cc(CNCC(O)c2cccc(F)c2)cc2c1OCO2 (stereo not drawn) [DDD01296688] | 3.64 µM | 0.82 µM | – | 88.9% | 1.77 µM | 98.5% | 4.84 µM | 88.3% | – | –
7 | COc1cc(CNCC(O)c2ccc(F)cc2F)cc2c1OCO2 (stereo not drawn) [DDD01296730] | – | – | – | – | – | – | – | – | – | IC50 [1, 4]: 4.89 µM; IC50 [1, 5]: 1.16 µM; Emax [1, 6]: 88.4%; Emax [1, 7]: 87.3%; IC50 [1, 8]: 2.48 µM; Emax [1, 9]: 98.1%; IC50 (P. falciparum Dd2; [10]): 4.87 µM
8 | O=C(Nc1ccc(OC2CCCC2)cc1)C1CCCN1c1nccs1 (stereo not drawn) [DDD01297375, O=C(Nc1ccc(OC2CCCC2)cc1)C1CCCN1c1nccs1] | – | – | – | – | – | – | – | – | – | IC50 ([1]; DD2, read-out: CDD P. falciparum Luc 11pt dose response (96hr, n=2): IC50 (μM), 96hr, 11-point, n=2): 0.0372 µM; IC50 ([1]; DD2, read-out: CDD P. falciparum Luciferase 11pt dose response (48hr, n=2): IC50 (μM), 48hr, 11-point, n=2): > 10 µM; Emax ([1]; DD2, 48hr, 11-point, read-out: CDD P. falciparum Luciferase ABS 11-pt Reconfirmation Dose Response (48hr): Maximum inhibition (%)): 50%; Emax ([1]; DD2, 96hr, 11-point, read-out: CDD P. falciparum Luciferase ABS 11-pt Reconfirmation Dose Response (96hr): Maximum inhibition (%)): 94.7%; CDD P. falciparum Sybr Green I ABS Dd2 Dose Response: Maximum measured (%) (P. falciparum Dd2; Dd2, 96 h): 45.3%; IC50 (P. falciparum Dd2; DD2, 96 h, read-out: CDD P. falciparum Sybr Green I ABS Dd2 Dose Response: IC50): > 12.5 µM
9 | OCCN1CCC(CNCc2ccccc2OC(F)(F)F)CC1 [DDD01297525] | – | – | – | – | – | – | – | – | – | IC50 [1, 4]: > 12.5 µM; IC50 [1, 5]: 1.51 µM; Emax [1, 6]: 88.7%; Emax [1, 7]: 54.6%; IC50 [1, 8]: 5.42 µM; Emax [1, 9]: 88.7%; IC50 (P. falciparum Dd2; [10]): 7.44 µM; Emax (P. falciparum Dd2; [11]): 77.9%
10 | CC(O)CN1CCC(CNCc2cccc(OC(F)(F)F)c2)CC1 (stereo not drawn) [DDD01297560] | > 12.5 µM | 1.04 µM | 91% | 58.6% | 5.4 µM | 87.8% | 2.94 µM | 91.2% | – | –
11 | Cc1ccnc(NC(=O)c2[nH]nc(C(C)C)c2Br)c1 [DDD01298775] | 3.6 µM | 0.39 µM | 91.3% | 93% | 1.39 µM | 97% | 8.74 µM | 51.2% | – | –
12 | CC(C)c1n[nH]c(C(=O)Nc2ccccn2)c1Br [DDD01298780] | 4.01 µM | 0.53 µM | 92.3% | 87.6% | 3.99 µM | 95.1% | 4.27 µM | 51.4% | – | –
13 | Cc1cc(C)n(C2CN(CC(O)c3cc(F)ccc3F)C2)n1 (stereo not drawn) [DDD01298957] | 1.46 µM | 0.21 µM | 94.9% | 98.6% | 0.854 µM | 100% | 0.733 µM | 98.5% | – | –
14 | CC(O)CN1CCC(CNCc2cccc(C(F)(F)F)c2)CC1 (stereo not drawn) [DDD01300262] | – | – | – | – | – | – | – | – | – | IC50 [1, 4]: 9.69 µM; IC50 [1, 5]: 1.59 µM; Emax [1, 6]: 89.5%; Emax [1, 7]: 69.7%; IC50 [1, 8]: 4.76 µM; Emax [1, 9]: 92.7%; IC50 (P. falciparum Dd2; [10]): 2.46 µM; Emax (P. falciparum Dd2; [11]): 91.1%
15 | CC(O)CN1CCC(CNCc2cccc(Cl)c2)CC1 (stereo not drawn) [DDD01300263] | 5.96 µM | 0.76 µM | 89.7% | 89% | 2.57 µM | 98% | 3.65 µM | 89.5% | – | –
16 | CC(O)CN1CCC(CNCc2cccc(Br)c2)CC1 (stereo not drawn) [DDD01304344] | 3.63 µM | 0.58 µM | 91.2% | 92.1% | 1.64 µM | 98.2% | 2.06 µM | 93.8% | – | –
17 | CC(C)c1nn(C)c(Cl)c1CNCC(O)c1cccc(F)c1 (stereo not drawn) [DDD01304823] | 3.48 µM | 0.58 µM | 92.1% | 89.6% | 1.39 µM | 98.7% | 3.66 µM | 92.5% | – | –
18 | CC(C)NC(=O)CNC(=O)C12CCC(=O)N1c1cc(Cl)ccc1S2 (stereo not drawn) [UCSD-0589377] | – | – | – | – | – | – | – | – | 3.84% | –
19 | c1nc(N2CCCC(Cn3cncn3)C2)c2sccc2n1 (stereo not drawn) [UCSD-0620442] | – | – | – | – | – | – | – | – | 1.85% | –
20 | N#Cc1nc(COc2ccc3c(c2)OCO3)oc1NC1CCCCC1 [UCSD-0630877] | – | – | – | – | – | – | – | – | 1.44% | –
21 | Cc1nc(C)c(CN2CCOC[C@H](Oc3ccccc3)C2)s1 [UCSD-0784893] | – | – | – | – | – | – | – | – | 25.2% | –
22 | Cc1cnc2c(c1NCc1cccnc1)c(=O)n(C)c(=O)n2C [UCSD-0787013] | – | – | – | – | – | – | – | – | 5.36% | –
23 | CCN1C[C@@H]2[C@@H](OC)CCN(C(=O)c3cc(C)nn3CC)[C@@H]2C1 [UCSD-0791117] | – | – | – | – | – | – | – | – | -3.65% | –
24 | CCS(=O)(=O)NCC1OCCc2cn(CC3CCOCC3)nc21 (stereo not drawn) [UCSD-0791354] | – | – | – | – | – | – | – | – | -4.05% | –
25 | Cn1cnnc1S(=O)(=O)C1CCN(S(=O)(=O)c2ccc(F)c(Cl)c2)CC1 [UCSD-0795178] | – | – | – | – | – | – | – | – | 2.47% | –
